Earlier results in patent publication US20230360801A1, “METHODS AND SYSTEMS OF IDENTIFYING INDIVIDUALS FOR PERIOPERATIVE NEUROCOGNITIVE DISORDER AND/OR POST-VIRAL COGNITIVE IMPAIRMENT” (Cambridge Cognition Limited, priority 2021, published 2023).

- logP: 3.9
Compound: CC(C)(Oc1ccc(C(=O)c2ccc(Cl)cc2)cc1)C(=O)O [fenofibric acid]
